Where two headings read alike, the source gives them in different places.
What was measured:
[1] = tested on: HBV (HepG2.117 cell line, inducibly HBV producing); test: Anti-HBV activity: intracellular HBV DNA by real-time PCR in HepG2.117 cells after 3 days of treatment; type: cell-based, hepatitis B virus
How it was run: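 HepG2.117 cells replicate HBV under Tet-off control, without doxycycline. After induction of replication, cells were treated with serially diluted compound for 3 days, and intracellular HBV DNA was then quantified by real-time PCR with an HBV-specific primer set and probe.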

[2] = in vitro; type: cell-based; conditions: human, HepG2 or HepG2.117 cells, ATPlite, mean value; for CC50 at 4 days: 4-days incubation (values marked with *)
How it was run: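 Luminescent ATP quantitation served as the viability endpoint following a 3- or 4-day incubation with test compounds.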

[3] = Hepatitis B virus, HepG2.117, 72 h, HepG2.117 cells, 3 days of treatment, intracellular HBV DNA by real-time PCR; mean value; read-out: EC50 (μM, mean value)
[4] = 3-days incubation (unmarked values)
[5] = Hepatitis B virus, HepG2.117, 72 h, HepG2.117 cells, intracellular HBV DNA by real-time PCR, 3 days of treatment, mean value; read-out: EC50 (μM, mean value)
[6] = 3-days incubation (not marked with *)

Row | Compound | EC50 [1, 3] [µM] | CC50 at 3 days [2, 4] [µM] | EC50 [1, 5] [µM] | CC50 at 3 days [2, 6] [µM] | CC50 at 4 days [2] [µM]
1 | C#C[C@@H]1CCCN1c1nc2c(c(=O)n1-c1ccc(C(=O)NC)cc1)C[C@@H](C)N(C(=O)c1ccc(Cl)c(Cl)c1)C2 (single isomer, unassigned) [Compound C351, 4-[(6R)-7-(3,4-dichlorobenzoyl)-2-[(2*S)-2-ethynylpyrrolidin-1-yl]-6-methyl-4-oxo-5,6,7,8-tetrahydropyrido[3,4-d]pyrimidin-3(4H)-yl]-N-methylbenzamide] | 0.2 | > 50 |  |  | 
2 | CNC(=O)c1ccc(-n2c(N[C@H](C)c3ccc(OC)c(OC)c3)nc3c(c2=O)C[C@@H](C)N(C(=O)c2ccc(Cl)c(Cl)c2)C3)cc1 (single isomer, unassigned) [Compound C415a] |  |  | 1.06 | 32.9 | 
3 | COC(=O)c1ccc(-n2c(NC(C)CCCCO)nc3c(c2=O)C[C@@H](C)N(C(=O)c2ccc(Cl)c(Cl)c2)C3)cc1OC (stereo partly shown) [Compound C670] |  |  | 0.37 | > 50 | 
4 | CNC(=O)c1ccc(-n2c(NCc3ccn(-c4ccc(F)cc4)n3)nc3c(c2=O)C[C@@H](C)N(C(=O)c2ccc(Cl)c(Cl)c2)C3)cc1 [Compound C465] |  |  | 0.65 | 22.6 | 
5 | CNC(=O)c1ccc(-n2c(NCc3nnc4n3CCC4)nc3c(c2=O)C[C@@H](C)N(C(=O)c2ccc(Cl)c(Cl)c2)C3)cc1 [Compound C483] |  |  | > 12.5 | > 25 | 
6 | CNC(=O)c1cc(-n2c(NC(C)C)nc3c(c2=O)C[C@@H](C)N(C(=O)c2ccc(Cl)c(Cl)c2)C3)n(C)n1 [Compound C354, 5-[(6R)-7-(3,4-dichlorobenzoyl)-6-methyl-4-oxo-2-[(propan-2-yl)amino]-5,6,7,8-tetrahydropyrido[3,4-d]pyrimidin-3(4H)-yl]-N,1-dimethyl-1H-pyrazole-3-carboxamide] | 0.16 | > 50 |  |  | 
7 | CNC(=O)c1ccc(-n2c(NCc3cc(C(F)F)no3)nc3c(c2=O)C[C@@H](C)N(C(=O)c2ccc(Cl)c(Cl)c2)C3)cc1 [Compound C554] |  |  | 1.77 | > 50 | 
8 | CNC(=O)c1ccc(-n2c(N3CCC[C@H]3c3ccccc3)nc3c(c2=O)C[C@@H](C)N(C(=O)c2ccc(Cl)c(Cl)c2)C3)cc1 (single isomer, unassigned) [Compound C401b] |  |  | 0.83 | 18.2 | 
9 | CNC(=O)c1ccc(-n2c(NCc3cccc(-c4nccn4C)c3)nc3c(c2=O)C[C@@H](C)N(C(=O)c2ccc(Cl)c(Cl)c2)C3)cc1 [Compound C488] |  |  | 7.31 | 28.2 | 
10 | CNC(=O)c1ccc(-n2c(O[C@H](C)C(C)C)nc3c(c2=O)C[C@@H](C)N(C(=O)c2ccc(Cl)c(Cl)c2)C3)cc1 [Compound C458] |  |  | 0.06 | 24.8 | 
11 | COc1ccc(CNc2nc3c(c(=O)n2-c2ccnnc2)CCN(C(=O)c2ccc(Cl)c(Cl)c2)C3)cc1 [Compound C135, 7-(3,4-dichlorobenzoyl)-2-{[(4-methoxyphenyl)methyl]amino}-3-(pyridazin-4-yl)-5,6,7,8-tetrahydropyrido[3,4-d]pyrimidin-4(3H)-one] | 1.13 | 23.3 |  |  | 
12 | CNC(=O)c1ccc(-n2c(N[C@@H](C)c3ccc(C(F)(F)F)cc3)nc3c(c2=O)C[C@@H](C)N(C(=O)c2ccc(Cl)c(C(F)F)c2)C3)cc1 [Compound C628] |  |  | 0.05 | 23.2 | 
13 | CNC(=O)c1ccc(-n2c(NC(C)C)nc3c(c2=O)C[C@@H](C)N(C(=O)c2ccc(Cl)cc2Cl)C3)cc1 [Compound C582] |  |  | 2.34 | > 50 | 
14 | CSc1nc2c(c(=O)[nH]1)CCN(C(=O)c1ccc(Cl)c(Cl)c1)C2 [Compound C6, 7-(3,4-dichlorobenzoyl)-2-(methylsulfanyl)-5,6,7,8-tetrahydropyrido[3,4-d]pyrimidin-4(3H)-one] | 16 |  |  |  | > 50
15 | CC(C)Nc1nc2c(c(=O)n1C1CCS(=O)(=O)CC1)CCN(C(=O)c1ccc(Cl)c(Cl)c1)C2 [Compound C120, 4-[7-(3,4-dichlorobenzoyl)-4-oxo-2-[(propan-2-yl)amino]-5,6,7,8-tetrahydropyrido[3,4-d]pyrimidin-3(4H)-yl]-1λ^6-thiane-1,1-dione] | 7.36 | > 50 |  |  | 
16 | CNC(=O)c1ccc(-n2c(NCc3ncnn3C)nc3c(c2=O)C[C@@H](C)N(C(=O)c2ccc(Cl)c(Cl)c2)C3)cc1 [Compound C561] |  |  | > 25 | > 50 | 

Row | Compound | EC50 [1, 3] [µM] | CC50 at 3 days [2, 4] [µM] | EC50 [1, 5] [µM] | CC50 at 3 days [2, 6] [µM] | CC50 at 4 days [2] [µM]
17 | CC[C@H]1Cc2c(nc(NC(C)C)n(-c3ccc(S(C)(=O)=O)cc3)c2=O)CN1C(=O)c1ccc(Cl)c(Cl)c1 (single isomer, unassigned) [Compound C158B, (6*S)-7-(3,4-dichlorobenzoyl)-6-ethyl-3-[4-(methanesulfonyl)phenyl]-2-[(propan-2-yl)amino]-5,6,7,8-tetrahydropyrido[3,4-d]pyrimidin-4(3H)-one] | 2.13 | 35.7 |  |  | 
18 | CNC(=O)c1ccc(-n2c(N[C@@H](C)c3ccc(S(C)(=O)=O)cc3)nc3c(c2=O)C[C@@H](C)N(C(=O)c2ccc(Cl)c(Cl)c2)C3)cc1 (single isomer, unassigned) [Compound C412b] |  |  | > 10 | > 50 | 
19 | CNC(=O)c1ccc(-n2c(NC(C)C)nc3c(c2=O)C[C@@H](C)N(C(=O)c2cc4sc(Br)cc4[nH]2)C3)cc1 [Compound C591] |  |  | 0.01 | 23.2 | 
20 | C[C@@H]1Cc2c(nc(NCc3cscn3)n(-c3ccc(S(C)(=O)=O)cc3)c2=O)CN1C(=O)c1ccc(Cl)c(Cl)c1 [Compound C146, (6R)-7-(3,4-dichlorobenzoyl)-3-[4-(methanesulfonyl)phenyl]-6-methyl-2-{[(1,3-thiazol-4-yl)methyl]amino}-5,6,7,8-tetrahydropyrido[3,4-d]pyrimidin-4(3H)-one] | 1.95 | > 50 |  |  | 
21 | CC(C)Nc1nc2c(c(=O)n1-c1ccnc(Cl)c1)C[C@@H](C)N(C(=O)c1ccc(Cl)c(Cl)c1)C2 [Compound C656] |  |  | 0.26 | > 50 | 
22 | COC(=O)[C@H]1CC[C@H](n2c(NC(C)C)nc3c(c2=O)C[C@@H](C)N(C(=O)c2ccc(Cl)c(Cl)c2)C3)CC1 [Compound C370] | 0.85 | > 50 |  |  | 
23 | CNC(=O)c1ccc(-n2c(NC3CC3)nc3c(c2=O)C[C@@H](C)N(C(=O)c2ccc(Cl)c(Cl)c2)C3)cc1 [Compound C329, 4-[(6R)-2-(cyclopropylamino)-7-(3,4-dichlorobenzoyl)-6-methyl-4-oxo-5,6,7,8-tetrahydropyrido[3,4-d]pyrimidin-3(4H)-yl]-N-methylbenzamide] | 0.55 | > 50 |  |  | 
24 | CNC(=O)c1ccc(-n2c(NC(C)C)nc3c(c2=O)C[C@@H](C)N(C(=O)c2ccc(C)c(C(F)(F)F)c2)C3)cc1 [Compound C585] |  |  | 0.1 | > 50 | 
25 | COc1ccc(CN(c2nc3c(c(=O)n2-c2ccc(Br)cc2)C[C@@H](C)N(C(=O)c2ccc(Cl)c(Cl)c2)C3)C(C)C)c(OC)c1 [Compound C691] |  |  | 2.45 | > 50 | 
26 | CNC(=O)[C@H]1CC[C@H](n2c(N[C@@H](C)c3ccc(C(F)(F)F)cc3)nc3c(c2=O)C[C@@H](C)N(C(=O)c2ccc(Cl)c(Cl)c2)C3)CC1 [Compound C640] |  |  | 0.07 | 5.2 | 
27 | COc1ccccc1-n1c(NC(C)(C)C)nc2c(c1=O)CCN(C(=O)c1ccc(Cl)c(Cl)c1)C2 [Compound C53, 2-(tert-butylamino)-7-(3,4-dichlorobenzoyl)-3-(2-methoxyphenyl)-5,6,7,8-tetrahydropyrido[3,4-d]pyrimidin-4(3H)-one] | 2.05 | 31.6 |  |  | 
28 | COc1ccccc1-n1c(NCc2ccccc2)nc2c(c1=O)CCN(C(=O)c1ccc(Cl)c(Cl)c1)C2 [Compound C10, 2-(benzylamino)-7-(3,4-dichlorobenzoyl)-3-(2-methoxyphenyl)-5,6,7,8-tetrahydropyrido[3,4-d]pyrimidin-4(3H)-one] | 6.21 |  |  |  | > 50
29 | CNC(=O)c1ccc(-n2c(N[C@@H](C)c3cccnc3OC)nc3c(c2=O)C[C@@H](C)N(C(=O)c2ccc(Cl)c(Cl)c2)C3)cc1 (relative stereo) [Compound C286, 4-[(rt)-7-(3,4-dichlorobenzoyl)-2-{[(1*S)-1-(2-methoxypyridin-3-yl)ethyl]amino}-6-methyl-4-oxo-5,6,7,8-tetrahydropyrido[3,4-d]pyrimidin-3(4H)-yl]-N-methylbenzamide] | 0.12 | 29 |  |  | 
30 | CNC(=O)c1ccc(-n2c(NC(C)C)nc3c(c2=O)C[C@@H](C)N(C(=O)c2cc(Br)c(Cl)cc2OC)C3)cc1 [Compound C523] |  |  | 18 | > 50 | 
31 | CC(C)Nc1nc2c(c(=O)n1-c1ccc(S(C)(=O)=O)cc1)CCN(C(=O)c1ccc3occc3c1)C2 [Compound C132, 7-(1-benzofuran-5-carbonyl)-3-[4-(methanesulfonyl)phenyl]-2-[(propan-2-yl)amino]-5,6,7,8-tetrahydropyrido[3,4-d]pyrimidin-4(3H)-one] | 0.7 | > 50 |  |  | 
32 | CNC(=O)c1ccc(-n2c(N[C@H](CCO)C3CC3)nc3c(c2=O)C[C@@H](C)N(C(=O)c2ccc(Cl)c(Cl)c2)C3)cc1 (single isomer, unassigned) [Compound C283, 4-[(6R)-2-{[(1*R)-1-cyclopropyl-3-hydroxypropyl]amino}-7-(3,4-dichlorobenzoyl)-6-methyl-4-oxo-5,6,7,8-tetrahydropyrido[3,4-d]pyrimidin-3(4H)-yl]-N-methylbenzamide] | 5.52 | > 50 |  |  | 

Source: patent publication US20230091047A1 (priority 2019, published 2023)
